Entries after “also recorded” stand apart in the source; their conditions may differ.
Tests used:
[1] = system: patients with moderate to severe precapillary pulmonary hypertension; assay: Study i) randomized crossover study of inhaled treprostinil vs inhaled iloprost, right heart catheter; assay type: in vivo, human; details: for area under the curve (AUC) of PVR decrease: mean±95% confidence interval
Method: All inhalations were performed with the […]® ultrasonic nebulizer ([…], Germany). Study i) was a randomized, open-label, single-blind crossover study. […] Patient characteristics and hemodynamic as well as gas exchange parameters are outlined in Table 3. Each patient inhaled both iloprost and treprostinil on the same day during right heart catheter investigation; the drugs were administered consecutively with a one hour interval between the drug applications. One half of the study patients initially inhaled treprostinil and then inhaled iloprost (n=22), while the other half initially inhaled iloprost and then inhaled treprostinil (n=22). Patients were randomized to one of the two groups and blinded as to the study drugs. Drug effects were monitored for 60 minutes after each inhalation.

[2] = system: patients with moderate to severe precapillary pulmonary hypertension; assay: Acute vasodilator challenge during right heart catheter investigation: inhaled treprostinil applied by soft mist inhaler (Example 1); details: for CO (max) / HR (max) / SvO2 (max): highest value; for CO (max) / HR (max) / SvO2 (max) / PAP (min) / PVR (min) / SAP (min) / SVR (min) / SaO2 (min): mean ± SEM; for PAP (min): lowest value during 120 min observation; for PVR (min) / SAP (min) / SVR (min) / SaO2 (min): lowest value; for pulmonary vascular resistance (PVR) reduced to: Respimat SMI, mean±95% confidence interval
Method: A study was conducted of acute vasodilator challenge during right heart catheter investigation to determine the safety, tolerability and pulmonary vasodilatory potency of inhaled treprostinil applied in seconds by a soft mist inhaler (SMI-TRE).
Inhaled nitric oxide (20 ppm; n=45) and inhaled treprostinil sodium (TRE; n=41) or placebo (n=4) were applied once during right heart catheter investigation. TRE was delivered in 2 breaths (1000 μg/ml aerosol concentration; 30 μg dose; n=12), 3 breaths (1000 μg/ml; 45 μg; n=9) or 2 breaths (2000m/m1; 60 μg; n=20) from a Respimat® SMI. Pulmonary hemodynamics and blood gases were measured at defined time points, observation time following TRE application was 120 minutes.
• A total number of 45 patients with moderate to severe precapillary pulmonary hypertension were enrolled. […] Disease etiologies were idiopathic PAH (iPAH) (n=13), PAH other (n=11), chronic thromboembolic pulmonary hypertension (CTEPH) (n=17) and pulmonary fibrosis (n=4).
Baseline values were determined 20-30 minutes after placement of the catheter. Heart rate, pulmonary and systemic blood pressure and cardiac output were measured and blood gases were taken during each pharmacological intervention at defined time points. Pharmacological interventions included the inhalation of 20 ppm nitric oxide (NO) after evaluation of baseline parameters (n=45) and the consecutive inhalation of placebo (n=4), 30 μg SMI-TRE (n=12), 45 μg SMI-TRE (n=9) or 60 μg (n=20) SMI-TRE. Placebo and treprostinil was applied with the Respimat® SMI. For filling of this device with treprostinil sodium, the placebo solution was withdrawn from the device with a syringe and treprostinil solution was injected into the device under sterile conditions. Aerosol quality was controlled before and after refilling of the SMI devices by laser diffractometry, see e.g. Gessler T., Schmehl T., Hoeper M.M., Rose F., Ghofrani H.A., Olschewski H. et al. Ultrasonic versus jet nebulization of iloprost in severe pulmonary hypertension. Eur. Respir. J. 2001; 17:14-19 incorporated herein in its entirety. […] The aerosol volume delivered by one cycle from the SMI was 15 μl. The solution used for aerosol generation was prepared from treprostinil sodium salt using a standard protocol. The SMI was either filled with a concentration of 1000 μg/ml treprostinil sodium (one aerosol puff=15 μg TRE) or with 2000 μg/ml (one puff=30 μg TRE). The different doses were applied as 2 puffs 1000 μg/ml (30 μg), 3 puffs 1000m/m1 (45 μg) and 2 puffs 2000 μg/ml (60 μg). The placebo was inhaled as 2 puffs from a placebo-SMI. Hemodynamics and gas-exchange parameters were recorded for 120 minutes after TRE inhalation.

[3] = system: patients with pre-existing gas exchange problems; assay: Ventilation-perfusion matching by multiple inert gas elimination technique (MIGET)
Method: The impact of SMI-TRE on ventilation-perfusion matching was assessed in five patients (30 μg TRE, n=2; 45 μg TRE, n=1; 60 μg TRE, n=2) with pre-existing gas exchange problems by use of the multiple inert gas elimination technique (MIGET), see e.g. Wagner PD, Saltzman HA, West JB. Measurement of continuous distributions of ventilation-perfusion ratios: theory. J Appl Physiol. 1974; 36:588-99; Ghofrani HA, Wiedemann R, Rose F, Schermuly RT, Olschewski H, Weissmann N et al. Sildenafil for treatment of lung fibrosis and pulmonary hypertension: a randomised controlled trial. Lancet. 2002; 360:895-900, both incorporated herein in their entirety.
The inhalation of a highly concentrated aerosol can be in theory prone to disturbances of gas exchange because the deposition of even small amounts of aerosol may deliver high doses locally and thereby antagonize the hypoxic pulmonary vasoconstriction in poorly ventilated areas. This would then lead to increased shunt flow or increase of low ventilation/perfusion (V/Q) areas. This question was addressed in five patients with the multiple inert gas elimination technique (MIGET), the gold-standard for intrapulmonary V/Q ratio determination. The MIGET patients were selected for pre-existing gas exchange limitations. […] Etiologies were iPAH (n=1), CTEPH (n=3), pulmonary fibrosis (n=1).

**Q.** For `CCCCC[C@H](O)CC[C@@H]1[C@H]2Cc3cccc(OCC(=O)[O-])c3C[C@H]2C[C@H]1O.[Na+]` [TRE], which “area under the curve (AUC) of PVR decrease” value (from here on “area … of PVR decrease”) ([1]; 7.5 μg inhaled in 6 minutes, start of inhalation until 60 min) is on record?
**A.** Its value is −12.6±7.0%.

**Q.** What about the “area … of PVR decrease” value ([1]; 15 μg inhaled in 6 minutes, until 60 min) of the same compound?
**A.** The value was −13.3±3.2%.

**Q.** What about the “area … of PVR decrease” value ([1]; 15 TRE inhaled in 3 minutes, until 60 min) of the same compound?
**A.** The value was −13.6±4.3%.

**Q.** What about the “PVR values after 60 min” value ([1]; 60 min after inhalation) of the same compound?
**A.** Its value is “had not yet returned to baseline”.

**Q.** What about the gas exchange ([1]; after inhalation) of the same compound?
**A.** The gas exchange was “did not affect gas exchange”.

**Q.** What about the “systemic arterial pressure (SAP)” value ([1]; after inhalation) of the same compound?
**A.** Its value is “unaffected”.

**Q.** What about the “side effects (transient flush, headache)” value ([1]; iloprost 7.5 μg, treprostinil 7.5-15 μg) of the same compound?
**A.** The value was “not observed”.

**Q.** And the “maximum effect on PVR” value ([1]; iloprost vs treprostinil, pooled)?
**A.** The value was “comparable”.

**Q.** What about the taste ([1]; metacresol-containing TRE solution) of the same compound?
**A.** Its taste is “Bad taste was reported by most of the patients”.

**Q.** What about the “time to maximum effect on PVR after inhalation” value ([1]; pooled n=44, mean±SEM, p<0.0001) of the same compound?
**A.** The value was 18 ± 2 min.

**Q.** What about the “120 minute area under the curve for PVR” value ([2]; 30 μg TRE) of the same compound?
**A.** The value was −870±940 min %.

**Q.** What about the “duration of effect on pulmonary vascular resistance” value ([2]; 30 μg TRE, compared with 45 and 60 μg) of the same compound?
**A.** Its value is “somewhat shorter effect”.

**Q.** What about the “CO (max)” value ([2]; 30 μg TRE, n=12) of the same compound?
**A.** The value was 108.8 ± 3.8% of baseline values.

**Q.** And the “HR (max)” value ([2]; 30 μg TRE, n=12)?
**A.** The value was 106.1 ± 2.9% of baseline values.

**Q.** What about the “SvO2 (max)” value ([2]; 30 μg TRE, n=12) of the same compound?
**A.** Its value is 102.4 ± 1.3% of baseline values.

**Q.** And the “PAP (min)” value ([2]; 30 μg TRE, n=12)?
**A.** The value was 83.4 ± 3.2% of baseline values.

**Q.** What about the “PVR (min)” value ([2]; 30 μg TRE, n=12) of the same compound?
**A.** The value was 84.4 ± 4.4% of baseline values.

**Q.** What about the “SAP (min)” value ([2]; 30 μg TRE, n=12) of the same compound?
**A.** The value was 97.3 ± 1.9% of baseline values.

**Q.** What about the “SVR (min)” value ([2]; 30 μg TRE, n=12) of the same compound?
**A.** Its value is 97.7 ± 4.2% of baseline values.

**Q.** What about the “SaO2 (min)” value ([2]; 30 μg TRE, n=12) of the same compound?
**A.** Its value is 101 ± 0.3% of baseline values.

**Q.** What about the “pulmonary vascular resistance (PVR) reduced to” value ([2]; 30 μg, 2 breaths 1000 μg/ml) of the same compound?
**A.** Its value is 84.4±8.7 % of baseline values.

**Q.** And the “120 minute area under the curve for PVR” value ([2]; 45 μg TRE)?
**A.** Its value is −2450±2070 min %.

**Q.** What about the “CO (max)” value ([2]; 45 μg TRE, n=9) of the same compound?
**A.** The value was 108.6 ± 5.6% of baseline values.

**Q.** And the “HR (max)” value ([2]; 45 μg TRE, n=9)?
**A.** The value was 99.1 ± 2.4% of baseline values.

**Q.** What about the “SvO2 (max)” value ([2]; 45 μg TRE, n=9) of the same compound?
**A.** Its value is 104.5 ± 4.4% of baseline values.

**Q.** And the “PAP (min)” value ([2]; 45 μg TRE, n=9)?
**A.** Its value is 77.6 ± 6.8% of baseline values.

**Q.** What about the “PVR (min)” value ([2]; 45 μg TRE, n=9) of the same compound?
**A.** The value was 71.4 ± 8.9% of baseline values.

**Q.** And the “SAP (min)” value ([2]; 45 μg TRE, n=9)?
**A.** The value was 96.1 ± 1.5% of baseline values.

**Q.** And the “SVR (min)” value ([2]; 45 μg TRE, n=9)?
**A.** The value was 92 ± 3.9% of baseline values.

**Q.** And the “SaO2 (min)” value ([2]; 45 μg TRE, n=9)?
**A.** The value was 94.4 ± 1.8% of baseline values.

**Q.** And the “pulmonary vascular resistance (PVR) reduced to” value ([2]; 45 μg, 3 breaths 1000 μg/ml)?
**A.** Its value is 71.4±17.5 % of baseline values.

**Q.** What about the “120 minute area under the curve for PVR” value ([2]; 60 μg TRE) of the same compound?
**A.** Its value is −2000±900 min %.

**Q.** And the “CO (max)” value ([2]; 60 μg TRE, n=20)?
**A.** Its value is 103.8 ± 2.0% of baseline values.

**Q.** What about the “HR (max)” value ([2]; 60 μg TRE, n=20) of the same compound?
**A.** Its value is 101.1 ± 0.9% of baseline values.

**Q.** What about the “SvO2 (max)” value ([2]; 60 μg TRE, n=20) of the same compound?
**A.** Its value is 102 ± 1.0% of baseline values.

**Q.** And the “PAP (min)” value ([2]; 60 μg TRE, n=20)?
**A.** The value was 79.5 ± 2.4% of baseline values.

**Q.** And the “PVR (min)” value ([2]; 60 μg TRE, n=20)?
**A.** The value was 77.5 ± 3.7% of baseline values.

**Q.** What about the “SAP (min)” value ([2]; 60 μg TRE, n=20) of the same compound?
**A.** Its value is 93.6 ± 2.9% of baseline values.

**Q.** And the “SVR (min)” value ([2]; 60 μg TRE, n=20)?
**A.** The value was 91.3 ± 2.1% of baseline values.

**Q.** And the “SaO2 (min)” value ([2]; 60 μg TRE, n=20)?
**A.** The value was 95.8 ± 0.9% of baseline values.

**Q.** And the “pulmonary vascular resistance (PVR) reduced to” value ([2]; 60 μg, 2 breaths)?
**A.** Its value is 77.5±7.2 % of baseline values.

**Q.** What about the “effect on systemic vascular resistance and pressure” value ([2]; 30-60 μg from Respimat SMI) of the same compound?
**A.** The value was “very small and not clinically significant”.

**Q.** And the systemic side effects ([2]; 30-60 μg from Respimat SMI)?
**A.** The systemic side effects was “No systemic side effects”.

**Q.** What about the “tolerability / side effects” value ([2]; 30-60 μg from Respimat SMI, listed as SMI-TRE) of the same compound?
**A.** Its value is “No significant side effects; also recorded: well tolerated; also recorded: only mild and transient cough for a maximum of one minute”.

**Q.** What about the “duration of PVR reduction / pulmonary vasodilation” value ([2]; 45 and 60 μg, single inhalation of 2-3 breaths, outlasted observation time) of the same compound?
**A.** The value was > 120 min.

**Q.** And the cardiac output ([2]; 120 min observation period)?
**A.** Its cardiac output is “significantly increased”.

**Q.** And the gas exchange ([2]; 120 min observation period)?
**A.** Its gas exchange is “not influenced”.

**Q.** What about the heart rate ([2]; 120 min observation period) of the same compound?
**A.** Its heart rate is “rather unchanged”.

**Q.** What about the shunt flow ([3]; 60 minutes after SMI-TRE, mean±95% confidence interval, n=5) of the same compound?
**A.** Its shunt flow is 8.3±3.4%.

**Q.** And the “low V/Q areas or shunt fraction” value ([3]; after inhalation of SMI-TRE, n=5)?
**A.** The value was “No significant increase”.

**Q.** And the “maximal relative reduction of SaO2” value ([3]; five MIGET patients, compared to baseline values)?
**A.** The value was −3.8±1.5%.
